Two compounds from patent publication US20120294837A1, “METHODS OF ISOLATING AND CULTURING MESENCHYMAL STEM CELLS” (UNIVERSITY OF ROCHESTER, priority 2010, published 2012) can be followed below.

For series [1], the system named is limb-bud derived MSCs. Kind of series: Limb-bud MSC adipogenic monolayer differentiation (Oil Red-O staining, real-time RT-PCR). The format is cell-based, mouse. The conditions noted are these: DAPT 1 μM, 21 days. The protocol: (§1) Limb-bud derived MSCs were isolated from E11.5 CD1 mouse embryos as previously described (Zhang et al., Bone 34:809-17 (2004)). For chondrogenic differentiation, MSCs were seeded in micromass (1×10^5 cells in […]) in 12-well plates for 1.5 hours before adding standard media, media containing DAPT (1 μM), or media containing Hes1 shRNA lentivirus. Cells were cultured for a time-course of 6 hours, 3, 5, and 7 days prior to harvest for cartilage staining (1% Alcian blue/3% glacial acetic acid) or total RNA isolations. Limb-bud derived MSCs were also cultured in monolayer for 21 days and treated with either osteogenic (10 nM dexamethasone; 50 μM ascorbic acid; 10 mM β-glycerolphosphate) or adipogenic medium (Millipore; Billerica, Mass.) in the presence and absence of DAPT. Fixed MSCs were stained for osteoblastic differentiation using an alkaline phosphatase stain (nitro blue tetrazolium chloride/5-bromo-4-chloro-3-indolyhosphate P-toluidine salt) or adipogenic differentiation using an Oil Red-O staining solution (0.36%). Total RNA was isolated from monolayer cultures at day 21 for use in real-time RT-PCR analyses.
(§2) Embryonic limb-bud tissues or micromass cultures were frozen in liquid nitrogen and then homogenized in Trizol Reagent (Invitrogen; Carlsbad, Calif.) via rendering through a 25-gauge needle and syringe. Total cellular RNA was extracted following the manufacture's protocol. RNA was quantified using a NanoDrop spectrophotometer (NanoDrop; Wilmington, Del.) and equal concentrations of total RNA were pooled for synthesis of cDNA. Total RNA (1 μg) was reverse transcribed using the iScript™ cDNA synthesis kit (Bio-Rad; Hercules, Calif.) according to the manufacture's instructions. Reverse transcribed cDNA was analyzed by real-time RT-PCR with mouse-specific primers for: Sox9, Runx2, Col2a1, Agc1, Col1a1, Ap, Oc, Pparγ, Jagged1, Jagged2, Delta-like1, Delta-like3, Delta-like4, Notch1, Notch2, Notch3, Notch4, Hes1, Hes3, Hes5, Hes7, Hey1, Hey2, HeyL, and CyclinD1. Primers were designed using Applied Biosystems software (Applied Biosystems; Foster City, Calif.). […]
(In general: Real-time PCR tracks product formation cycle by cycle.)

Another series deals with cleaved Notch2 (NICD2). Kind of series: Western blot for cleaved, active Notch2 (NICD2) in cultured limb-bud derived MSCs. The conditions noted are these: DAPT 1 um, cultured overnight, vs absence of DAPT. It is filed as cell-based, mouse. As to the method: Total protein was isolated from either whole mouse limb-bud tissue or cultured limb-bud derived MSCs using Golden lysis buffer. The cultured limb-bud derived MSCs were plated at the density of 6×10^6 cells in 10 cm dishes and cultured overnight in 10% FBS DMEM media both in the presence and absence of DAPT (1 um). Protein samples (˜100 μg) from each isolation were subsequently separated on 10% SDS-polyacrylamide and transferred to a PVDF membrane. NICD1 and NICD2 cleaved proteins were detected using the bTAN 20 (Notch1) and C651.6DdHN (Notch2) primary antibodies (0.4 ug/ml) and then further probed with appropriate secondary antibody (1:3000). Anti-β-actin antibody (Sigma; St. Louis, Mo.) was used as a control for equal protein loading. Immunoblots were detected using Supersignal west femto maximum sensitivity substrate (Pierce; Rockford, Ill.).
To determine which Notch receptor is active in the limb-bud mesenchyme, total protein was isolated from cultured MSCs in the presence and absence of the Notch inhibitor, N-(3,5-difluorophenylacetyl-L-alanyl)]-S-phenylglycine t-ButylEster (DAPT, Calbiochem; San Diego, Calif.), or directly from wild-type E11.5 whole limb-bud tissue, and performed western blot analyses using Notch1 and Notch2 antibodies that can detect the cleaved or active (NICD) form of the receptor. […]

For series [2], the system named is limb-bud derived MSCs. As to the kind of experiment: Limb-bud MSC osteogenic monolayer differentiation (alkaline phosphatase staining, real-time RT-PCR). The format is cell-based, mouse. The conditions noted are these: DAPT 1 μM, 21 days. As to the method:
as §1, §2

The subject of series [3] is limb-bud derived MSCs. As to the kind of experiment: Limb-bud MSC micromass chondrogenic differentiation (Alcian blue staining, real-time RT-PCR). The format is cell-based, mouse. The protocol: as §1
Embryonic limb-bud tissues or micromass cultures were frozen in liquid nitrogen and then homogenized in Trizol Reagent (Invitrogen; Carlsbad, Calif.) via rendering through a 25-gauge needle and syringe. Total cellular RNA was extracted following the manufacture's protocol. RNA was quantified using a NanoDrop spectrophotometer (NanoDrop; Wilmington, Del.) and equal concentrations of total RNA were pooled for synthesis of cDNA. Total RNA (1 μg) was reverse transcribed using the iScript™ cDNA synthesis kit (Bio-Rad; Hercules, Calif.) according to the manufacture's instructions. Reverse transcribed cDNA was analyzed by real-time RT-PCR with mouse-specific primers for: Sox9, Runx2, Col2a1, Agc1, Col1a1, Ap, Oc, Pparγ, Jagged1, Jagged2, Delta-like1, Delta-like3, Delta-like4, Notch1, Notch2, Notch3, Notch4, Hes1, Hes3, Hes5, Hes7, Hey1, Hey2, HeyL, and CyclinD1. Primers were designed using Applied Biosystems software (Applied Biosystems; Foster City, Calif.). Sequences are available upon request. DNA amplification was achieved using the SYBR® Green PCR Master Mix (Applied Biosystems; Foster City, Calif.) and the RotorGene real-time DNA amplification system (Corbett Research; Sydney, Australia). Gene expression was normalized to β-actin expression levels and then normalized to control samples.
To determine the role of Notch signaling in MSCs, Notch loss-of-function assays were performed on E11.5 limb-bud derived MSC cultures using the Notch inhibitor, DAPT. […] The effect of DAPT was also assessed on the expression of the chondrogenic markers Sox9, Col2a1, and Agc1 via real-time RT-PCR.

Another series relates to Notch signaling in hMSCs. As to the kind of experiment: RBPjP-dependent Notch luciferase reporter in hMSCs cultured on Jag1 coated plates. It is filed as cell-based, human. The protocol:
This lentivirus expresses GFP allowing determination of infection efficiency after 24 hours and during multiple passages of the cells. […] A protocol for coating culture dishes with the recombinant Jag1 protein using 5 μg/ml, 10 μg/ml, and 15 μg/ml concentrations of Jag1 and 10 μg/ml concentration of IgG as controls was established. […] Next, to confirm that this Jag1 coating technology induced Notch signaling in hMSCs, hMSCs transfected with the RBPjP-dependent Notch luciferase reporter were cultured on 5 μg/ml, 10 μg/ml, and 15 μg/ml Jag1 and IgG coated plates.
In general terms: A reporter such as luciferase makes a cellular process visible.

The test system of series [4] is hMSCs. As to the kind of experiment: BrdU ELISA proliferation assay of hMSCs on Jag1 coated plates. It is filed as cell-based, human. The following applies: passage 3 hMSCs, 24 hours, vs IgG. The protocol: (§3) To determine if Notch signaling can induce important regulators of stem cell maintenance, passage 3 hMSCs were cultured on Jag1 and IgG coated plates for 24 hours and isolated RNA for real-time RT-PCR analyses (FIG. 11B). […] Therefore, Jag1/Notch signaling regulated hMSC maintenance and expansion via this network of stem cell factors. Finally, the same culture system and passage 3 hMSCs were used to determine if Jag1 regulated the proliferation of hMSCs over a relatively short time interval. BrdU ELISA assays were performed for hMSCs cultured on Jag1 and IgG coated plates for 24 hours.
In general terms: Uptake of a labelled nucleoside into DNA is a usual measure of proliferation.

For series [5], the system named is hMSCs. As to the kind of experiment: Real-time RT-PCR of Notch target and stem cell regulator genes in hMSCs on Jag1 coated plates. It is filed as cell-based, human. The conditions noted are these: Jag1 coated plates 10 μg/ml, passage 3 hMSCs, 24 hours. The protocol: as §3

Turning to `C[C@H](NC(=O)Cc1cc(F)cc(F)c1)C(=O)N[C@H](C(=O)OC(C)(C)C)c1ccccc1` [DAPT], in the series with limb-bud derived MSCs [1] (adipogenic media), the “Oil Red-0 staining” value is listed as “elevated Oil Red-0 staining” and the “adipogenic differentiation of MSCs” value is “enhanced normal adipogenic differentiation”. Further, the “expression of the adipocyte marker gene Pparγ” value with limb-bud derived MSCs [1] (real-time RT-PCR) is given as “increase”. For the same compound, in the series with cleaved Notch2 (NICD2), the “abundance of the cleaved Notch2 (NICD2)” value was “reduce the abundance of the cleaved Notch2 (NICD2)”. Moreover, in the series with limb-bud derived MSCs [2] (osteogenic media), the alkaline phosphatase staining entry is reported as “elevated alkaline phosphatase staining” and the “osteoblastic differentiation of MSCs” value was “enhanced normal osteoblastic differentiation”. Moreover, the “expression of osteoblast marker genes Col1a1, AP, and Oc” value in the series on limb-bud derived MSCs [2] (real-time RT-PCR) is reported as “significant increase”. Also, in the series with limb-bud derived MSCs [3] (1 μM DAPT, micromass culture, Alcian blue), the cartilage nodule formation result is “significantly enhanced cartilage nodule formation”. Moreover, the Agc1 expression entry with limb-bud derived MSCs [3] (DAPT 1 μM, day 7, real-time RT-PCR) is given as “significantly reduced”. Also, the “Sox9, Col2a1, and Agc1 expression” value in the series with limb-bud derived MSCs [3] (DAPT 1 μM, first 3-5 days of culture, vs untreated cultures, real-time RT-PCR) is “enhanced”. In the series on limb-bud derived MSCs [3] (continuous DAPT 1 μM vs vehicle, chondrogenic, osteogenic and adipogenic cultures (FIG. 2A-2C)), the “limb-bud MSC differentiation” value is “enhances limb-bud MSC differentiation without biasing lineage determination”.

On to “Jag1: recombinant Jag1 protein, Notch ligand, coated on culture dishes to activate Notch signaling”, for which, in the series on Notch signaling in hMSCs (Jag1 coated plates), the “hMSC growth, cell size, shape, cell survival on coated plates” value is “no obvious changes in cell size, shape, or cell survival”. Moreover, the “luciferase activity of Notch reporter” value in the series on Notch signaling in hMSCs (plates coated with 10 μg/ml Jag1, 5, 10 and 15 μg/ml compared, IgG control) is recorded as “maximal luciferase activity”. For the same compound, the “increase of BrdU incorporation as compared to controls” value in the series with hMSCs [4] is on record as “more than 50%”. Moreover, the “Oct4 expression compared to Sox2 and Nanog” value in the series on hMSCs [5] is given as “only mildly enhanced”. In the series with hMSCs [5] (vs IgG), the “Hes1 expression over controls” value was “approximately 7 fold”; the “expression of Oct4, Sox2, and Nanog” value is reported as “induced the expression”.
